Assay results as given in ChEMBL document CHEMBL1201862, “PubChem BioAssay data set” (2004).
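Cultured in 96-well plates, cells were exposed to test compound for 48 hours across five concentrations. Abbreviation: GI50, concentration required for 50% inhibition of growth.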 Active and inactive are the calls of the source. Cut-off read from the data, not from the text of the source: active = GI50 up to about 1.1 µM and inactive = higher.

Key:
Assay in all cases: DTP human tumour cell line panel, 48 h
BT-549 = system: BT-549
CAKI-1 = system: CAKI-1
COLO 205 = system: COLO 205
HCT-15 = system: HCT-15
HOP-92 = system: HOP-92
KM12 = system: KM12
MOLT-4 = system: MOLT-4
NCI-H226 = system: NCI-H226
NCI-H460 = system: NCI-H460
NCI-H522 = system: NCI-H522
OVCAR-3 = system: OVCAR-3
OVCAR-5 = system: OVCAR-5
OVCAR-8 = system: OVCAR-8
PC-3 = system: PC-3
RXF 393 = system: RXF 393
SF-295 = system: SF-295
SK-MEL-2 = system: SK-MEL-2
SNB-19 = system: SNB-19
UACC-257 = system: UACC-257
UO-31 = system: UO-31

| SMILES | GI50 (BT-549) | GI50 (CAKI-1) | GI50 (COLO 205) | GI50 (HCT-15) [µM] | GI50 (HOP-92) | GI50 (KM12) | GI50 (MOLT-4) | GI50 (NCI-H226) | GI50 (NCI-H460) | GI50 (NCI-H522) | GI50 (OVCAR-3) | GI50 (OVCAR-5) | GI50 (OVCAR-8) | GI50 (PC-3) | GI50 (RXF 393) | GI50 (SF-295) | GI50 (SK-MEL-2) | GI50 (SNB-19) | GI50 (UACC-257) | GI50 (UO-31) |
| --- | --- | --- | --- | --- | --- | --- | --- | --- | --- | --- | --- | --- | --- | --- | --- | --- | --- | --- | --- | --- |
| COc1ccc2[nH]c(C(=O)N3CC(CCl)c4ccc([N+](=O)[O-])cc43)cc2c1 (stereo not given) | > 100 µM (inactive) | > 100 µM (inactive) | > 100 µM (inactive) | > 100 | > 100 µM (inactive) | > 31.8 µM (inactive) | > 100 µM (inactive) | 33.8 µM (inactive) | > 100 µM (inactive) | 75 µM (inactive) | > 100 µM (inactive) | > 100 µM (inactive) | > 80.9 µM (inactive) | > 100 µM (inactive) | > 65.5 µM (inactive) | > 100 µM (inactive) | > 100 µM (inactive) | > 100 µM (inactive) | > 100 µM (inactive) | > 100 µM (inactive) |
| OCC(CCc1c[nH]c2ccccc12)c1c[nH]c2ccccc12 (stereo not given) | 16.5 µM (inactive) | 26.1 µM (inactive) | 16.9 µM (inactive) | 14.7 | 15.2 µM (inactive) | 15.9 µM (inactive) | 14.5 µM (inactive) | 18.1 µM (inactive) | 14.6 µM (inactive) | 16 µM (inactive) | 27.3 µM (inactive) | 17.4 µM (inactive) | 20.7 µM (inactive) | 17.2 µM (inactive) | 15.3 µM (inactive) | 16.7 µM (inactive) | 16.5 µM (inactive) | 16.7 µM (inactive) | 11.6 µM (inactive) | 12.6 µM (inactive) |
| CCOC(=O)C(NC(=O)c1ccccc1)(Nc1ccc(S(=O)(=O)Nc2ccc(OC)nn2)cc1)C(F)(F)F (stereo not given) | > 100 µM (inactive) | > 100 µM (inactive) | > 100 µM (inactive) | > 100 | > 100 µM (inactive) | > 100 µM (inactive) | > 100 µM (inactive) | > 100 µM (inactive) | > 100 µM (inactive) | > 100 µM (inactive) | > 100 µM (inactive) | > 100 µM (inactive) | > 100 µM (inactive) | > 100 µM (inactive) | > 100 µM (inactive) | > 100 µM (inactive) | > 100 µM (inactive) | > 100 µM (inactive) | > 100 µM (inactive) | > 100 µM (inactive) |
| COc1ccccc1/[N+]([O-])=C/c1ccccc1OC(=S)S | 25.9 µM (inactive) | 58.9 µM (inactive) | 27.4 µM (inactive) | 23 | 19 µM (inactive) | 47.6 µM (inactive) | 27.5 µM (inactive) | 28.8 µM (inactive) | 64.9 µM (inactive) | 22.3 µM (inactive) | 26.2 µM (inactive) | 96.2 µM (inactive) | 21.7 µM (inactive) | 34 µM (inactive) | 33.7 µM (inactive) | 32.2 µM (inactive) | 21.5 µM (inactive) | 99.3 µM (inactive) | 28.1 µM (inactive) | 31 µM (inactive) |
| CC(C)Oc1c(C2(c3ccccc3)SCCCS2)c(=O)c1=O | > 100 µM (inactive) | > 100 µM (inactive) | > 100 µM (inactive) | > 100 | > 100 µM (inactive) | 50.2 µM (inactive) | > 100 µM (inactive) | > 100 µM (inactive) | > 100 µM (inactive) | 24.7 µM (inactive) | > 100 µM (inactive) | > 100 µM (inactive) | > 100 µM (inactive) | > 100 µM (inactive) | > 100 µM (inactive) | > 100 µM (inactive) | > 100 µM (inactive) | > 100 µM (inactive) | > 100 µM (inactive) | > 100 µM (inactive) |
| CCCS(=O)(=O)Nc1ccc(Nc2c3ccccc3nc3ccccc23)c(OC)c1 | 2.37 µM (inactive) | 0.4 µM (active) | 2.16 µM (inactive) | 1.35 | 1.73 µM (inactive) | 1.92 µM (inactive) | 0.0211 µM (active) | 1.46 µM (inactive) | 0.0362 µM (active) | 0.38 µM (active) | 2.3 µM (inactive) | 8.63 µM (inactive) | 1.2 µM (inactive) | 3.88 µM (inactive) | 5.19 µM (inactive) | 0.429 µM (active) | 2.86 µM (inactive) | 1.08 µM (active) | 5.53 µM (inactive) | 1.08 µM (active) |
| COc1ccc(/C=C(\Cl)c2ccc(OC)c(OC)c2)cc1OC | > 100 µM (inactive) | > 100 µM (inactive) | > 100 µM (inactive) | > 100 | 56 µM (inactive) | > 100 µM (inactive) | > 100 µM (inactive) | > 100 µM (inactive) | > 100 µM (inactive) | 22.9 µM (inactive) | > 100 µM (inactive) | > 100 µM (inactive) | > 100 µM (inactive) | > 100 µM (inactive) | > 90.4 µM (inactive) | > 91.8 µM (inactive) | > 100 µM (inactive) | > 100 µM (inactive) | > 100 µM (inactive) | > 100 µM (inactive) |
| CS(=O)(=O)OCCN(CCOS(C)(=O)=O)c1ccc(/C=N/c2ccc3oc(=O)ccc3c2)cc1 | 10.5 µM (inactive) | 0.622 µM (active) | 2.05 µM (inactive) | 7.21 | 12.3 µM (inactive) | 8.41 µM (inactive) | 0.318 µM (active) | 3.53 µM (inactive) | 0.0313 µM (active) | 0.211 µM (active) | 3.58 µM (inactive) | 3.24 µM (inactive) | 6.97 µM (inactive) | 16.6 µM (inactive) | 0.553 µM (active) | 0.933 µM (active) | 15.8 µM (inactive) | 8.97 µM (inactive) | 6.82 µM (inactive) | 0.959 µM (active) |
| COc1ccc(/C=C(\C(=O)OCC(C)C)c2ccc(OC)c(OC)c2)cc1OC | > 100 µM (inactive) | > 100 µM (inactive) | 38.4 µM (inactive) | > 100 | > 100 µM (inactive) | > 10 µM (inactive) | > 100 µM (inactive) | > 100 µM (inactive) | > 100 µM (inactive) | > 100 µM (inactive) | > 100 µM (inactive) | > 100 µM (inactive) | > 100 µM (inactive) | > 100 µM (inactive) | > 100 µM (inactive) | 69.5 µM (inactive) | > 100 µM (inactive) | > 100 µM (inactive) | > 100 µM (inactive) | > 100 µM (inactive) |
| Cc1ccc(S(=O)(=O)OC2CN3CCC2CC3)cc1 (stereo not given) | > 100 µM (inactive) | > 100 µM (inactive) | > 100 µM (inactive) | > 100 | > 100 µM (inactive) | > 100 µM (inactive) | > 100 µM (inactive) | > 100 µM (inactive) | > 100 µM (inactive) | > 100 µM (inactive) | > 100 µM (inactive) | > 100 µM (inactive) | > 100 µM (inactive) | > 100 µM (inactive) | > 100 µM (inactive) | > 100 µM (inactive) | > 100 µM (inactive) | > 100 µM (inactive) | > 100 µM (inactive) | > 100 µM (inactive) |
| Cc1c(CNc2ccc(Cl)c(Cl)c2Cl)cnc2nc(N)nc(N)c12 | 24.9 µM (inactive) | > 100 µM (inactive) | 5.35 µM (inactive) | 0.184 | 5.85 µM (inactive) | 4.99 µM (inactive) | 0.164 µM (active) | 19.5 µM (inactive) | 0.0615 µM (active) | 4.46 µM (inactive) | 13.6 µM (inactive) | 11 µM (inactive) | 0.053 µM (active) | 2.58 µM (inactive) | 11.9 µM (inactive) | 0.065 µM (active) | 27.1 µM (inactive) | 14.6 µM (inactive) | 0.236 µM (active) | 2.44 µM (inactive) |
| Clc1ccc(C2c3ccccc3-c3nc4ccccc4n32)cc1 (stereo not given) | 43.5 µM (inactive) | 37.1 µM (inactive) | > 61.2 µM (inactive) | 17.3 | 34.8 µM (inactive) | 13 µM (inactive) | 8.09 µM (inactive) | > 42.5 µM (inactive) | 19.7 µM (inactive) | 11.6 µM (inactive) | 12.6 µM (inactive) | 25.4 µM (inactive) | 18.2 µM (inactive) | 19.4 µM (inactive) | 5.26 µM (inactive) | 3.48 µM (inactive) | 22.2 µM (inactive) | 31.7 µM (inactive) | 53.7 µM (inactive) | 4.05 µM (inactive) |
| S=C1N=C(Cl)/C(=C\c2ccco2)N1 | > 100 µM (inactive) | > 100 µM (inactive) | > 100 µM (inactive) | > 100 | > 100 µM (inactive) | > 100 µM (inactive) | > 10 µM (inactive) | > 80.5 µM (inactive) | > 100 µM (inactive) | 33.7 µM (inactive) | > 100 µM (inactive) | > 100 µM (inactive) | > 100 µM (inactive) | > 100 µM (inactive) | > 100 µM (inactive) | > 100 µM (inactive) | > 100 µM (inactive) | > 100 µM (inactive) | > 100 µM (inactive) | > 100 µM (inactive) |
| CC1=NC(C)(COC(=O)C2(C)NC(C)(CO)CO2)COC1=O (stereo not given) | > 100 µM (inactive) | > 100 µM (inactive) | > 100 µM (inactive) | > 100 | > 100 µM (inactive) | > 100 µM (inactive) | > 100 µM (inactive) | > 100 µM (inactive) | > 100 µM (inactive) | > 100 µM (inactive) | > 100 µM (inactive) | > 100 µM (inactive) | > 100 µM (inactive) | > 100 µM (inactive) | > 100 µM (inactive) | > 100 µM (inactive) | > 100 µM (inactive) | > 100 µM (inactive) | > 100 µM (inactive) | > 100 µM (inactive) |
